Source: patent US20130243700A1, “Proteomic Antisense Molecular Shield and Targeting” (priority 2005, published 2013)

Legend:
[1] = molecular target: plate-immobilized collagen (Homo sapiens, UniProt P02452+P08123); assay: collagen binding study with iodinated FN and FNPEG-5K; details: iodinated protein; compared with native FN
Protocol: Purified FN was then reabsorbed to gelatin agarose. Sodium cyanoborohydride and mPEG-aldehyde (MW 5,000) were added to the resin-bound FN. […] Following this reaction and subsequent washing away of the reactants, the protein was eluted from the gelatin agarose matrix. Using this reaction sequence, the collagen binding sites within FN were not modified by the pegylation. […] To test whether the modified forms of FN retained the collagen-binding properties of native FN, binding studies using iodinated FN and FNPEG-5K were undertaken. […] Thus, the key collagen-binding properties of FN were not inhibited by this targeted modification approach.

platelets = assay: platelet adhesion to FN or FNPEG-5K immobilized on tissue culture plates; type: cell-based, human; details: protein immobilized onto tissue culture plates; fluorescently labeled platelets
Protocol: As mentioned previously, FN itself has the ability to mediate adhesion of platelets. To test whether this binding potential was eliminated following mPEG-aldehyde derivatization, FN and FNPEG-5K were immobilized onto tissue culture plates. Fluorescently labeled human […] and adhesion was assessed.

[2] = system: blood vessel wall molecules; assay: incubation of damaged blood vessels with biotinylated bioconjugate; type: binding; details: biotinylated form
Protocol: To further assess the ECM-binding properties FNPEG-5K, damaged blood vessels were incubated with a biotinylated form of bioconjugate.

type I collagen = type I collagen (Homo sapiens, UniProt P02452+P08123); assay: platelet adhesion to type I collagen adsorbed to tissue culture plates after incubation with FN or FNPEG-5K; type: cell-based; details: incubated with the protein and washed
Protocol: (§1) Since the modified FNPEG-5K retained the collagen binding properties of native FN while lacking its intrinsic platelet activating properties, the ability of this reagent to block platelet adherence to collagen was investigated. To test this, type I collagen was adsorbed to tissue culture plates. Native FN or FNPEG-5K were then incubated with the immobilized collagen and washed. Platelet adhesion was then assessed.

vascular wall components = assay: platelet adhesion to damaged blood vessels; type: cell-based
Protocol: as §1

type I collagen, sequence (P02452 162-1218 limits assumed): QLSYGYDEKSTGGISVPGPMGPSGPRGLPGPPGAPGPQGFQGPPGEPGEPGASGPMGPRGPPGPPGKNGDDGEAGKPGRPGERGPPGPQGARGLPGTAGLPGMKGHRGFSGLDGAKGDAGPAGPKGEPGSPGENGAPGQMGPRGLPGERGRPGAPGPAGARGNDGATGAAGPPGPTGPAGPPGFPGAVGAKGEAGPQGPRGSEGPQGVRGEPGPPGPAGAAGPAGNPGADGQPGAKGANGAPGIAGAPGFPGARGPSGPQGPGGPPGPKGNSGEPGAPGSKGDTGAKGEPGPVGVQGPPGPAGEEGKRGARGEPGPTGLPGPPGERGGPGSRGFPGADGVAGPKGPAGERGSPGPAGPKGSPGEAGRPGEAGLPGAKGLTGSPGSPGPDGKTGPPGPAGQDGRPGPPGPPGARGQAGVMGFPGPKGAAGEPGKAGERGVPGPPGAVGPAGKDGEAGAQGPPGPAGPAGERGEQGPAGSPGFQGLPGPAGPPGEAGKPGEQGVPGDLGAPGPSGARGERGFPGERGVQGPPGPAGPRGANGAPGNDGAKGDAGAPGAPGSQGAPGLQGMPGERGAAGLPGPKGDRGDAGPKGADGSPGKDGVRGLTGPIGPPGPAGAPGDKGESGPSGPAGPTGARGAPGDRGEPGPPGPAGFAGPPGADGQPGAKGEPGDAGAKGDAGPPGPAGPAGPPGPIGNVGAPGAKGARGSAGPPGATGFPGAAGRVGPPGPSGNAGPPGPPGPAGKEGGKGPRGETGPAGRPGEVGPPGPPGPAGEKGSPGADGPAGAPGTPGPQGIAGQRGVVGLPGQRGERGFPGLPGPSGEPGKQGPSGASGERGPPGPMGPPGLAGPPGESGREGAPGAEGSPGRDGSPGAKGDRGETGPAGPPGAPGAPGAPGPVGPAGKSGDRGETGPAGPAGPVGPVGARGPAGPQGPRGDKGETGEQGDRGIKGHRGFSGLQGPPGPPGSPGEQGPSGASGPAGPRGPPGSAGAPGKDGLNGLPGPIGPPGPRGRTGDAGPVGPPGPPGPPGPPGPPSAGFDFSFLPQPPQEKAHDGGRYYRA
type I collagen, sequence (P08123 80-1119 limits assumed): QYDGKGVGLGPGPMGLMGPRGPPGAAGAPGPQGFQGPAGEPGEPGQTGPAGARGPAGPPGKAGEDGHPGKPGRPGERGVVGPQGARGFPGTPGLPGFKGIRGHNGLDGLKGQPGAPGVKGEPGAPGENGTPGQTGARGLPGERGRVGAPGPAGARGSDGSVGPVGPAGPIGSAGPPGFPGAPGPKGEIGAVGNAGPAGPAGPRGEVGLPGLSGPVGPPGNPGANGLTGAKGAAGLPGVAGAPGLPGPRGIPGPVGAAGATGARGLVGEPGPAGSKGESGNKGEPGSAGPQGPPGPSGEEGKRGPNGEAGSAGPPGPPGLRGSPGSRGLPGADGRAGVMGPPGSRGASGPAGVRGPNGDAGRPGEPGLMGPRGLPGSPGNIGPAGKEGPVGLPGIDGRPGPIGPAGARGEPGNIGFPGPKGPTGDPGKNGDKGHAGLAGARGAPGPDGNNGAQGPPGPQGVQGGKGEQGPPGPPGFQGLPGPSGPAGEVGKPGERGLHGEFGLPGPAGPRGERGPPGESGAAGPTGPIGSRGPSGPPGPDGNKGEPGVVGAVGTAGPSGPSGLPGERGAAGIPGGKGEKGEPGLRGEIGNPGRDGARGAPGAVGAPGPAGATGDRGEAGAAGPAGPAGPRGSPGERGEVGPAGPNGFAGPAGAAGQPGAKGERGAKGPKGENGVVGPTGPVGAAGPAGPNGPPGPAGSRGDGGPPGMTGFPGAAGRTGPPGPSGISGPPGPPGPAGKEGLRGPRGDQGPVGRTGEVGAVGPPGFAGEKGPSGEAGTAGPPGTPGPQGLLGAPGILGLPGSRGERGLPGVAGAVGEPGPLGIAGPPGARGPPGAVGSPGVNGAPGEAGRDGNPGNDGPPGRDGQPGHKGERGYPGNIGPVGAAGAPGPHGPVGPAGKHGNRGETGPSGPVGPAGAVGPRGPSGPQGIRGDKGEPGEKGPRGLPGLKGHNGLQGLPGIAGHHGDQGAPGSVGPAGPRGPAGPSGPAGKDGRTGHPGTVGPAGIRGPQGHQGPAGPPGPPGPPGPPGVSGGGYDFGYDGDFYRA
plate-immobilized collagen, sequence (P02452 162-1218 limits assumed): as the sequence (P02452 162-1218 limits assumed) above
plate-immobilized collagen, sequence (P08123 80-1119 limits assumed): as the sequence (P08123 80-1119 limits assumed) above

Q: What does the source list for “FNPEG-5K: human plasma fibronectin pegylated on lysine residues with mPEG-aldehyde (MW 5,000) by reductive amination while bound to gelatin agarose”?
A: binding to plate-immobilized collagen [1]: bound plate-immobilized collagen in a manner similar to native FN; binding to platelets (platelet adhesion to immobilized protein) (platelets): markedly attenuated; coating of blood vessel wall molecules (ECM binding) [2]: coats blood vessel wall molecules; inhibition of platelet binding to type I collagen (type I collagen): potently inhibited; blocking of platelet adhesion to vascular wall components (vascular wall components): blocks platelet adhesion to vascular wall components
